Measurements reported in US10864179B2, “Histone deacetylase inhibitors for the use in the treatment of drug resistant melanoma” (STICHTING HET NEDERLANDS KANKER INSTITUUT-ANTONI VAN …, priority 2015, dated 2020).
“Also recorded” adds a separate entry of the source.

Tests used:
[1] = test system: NRAS-mutant melanoma patients; details: phase II; cited from earlier work
Colo741 melanoma cells = experiment: Long-term colony formation assay, Colo741 cells; assay type: cell-based; details: for effect of HDACi on dabrafenib, trametinib and their combination: FIG. 3
Excerpt: (§1) FIG. 2. Other HDACi also confer resistance to vemurafenib. […] B).
(§2) FIG. 3. HDACi confers resistance to the combination of a MEK and a BRAF inhibitor in melanoma. A,B,C).

A375 melanoma cells [2] = experiment: Long-term colony formation assay, A375 cells; assay type: cell-based, human; details: for proliferation in long-term colony formation assay: drug(s) without HDACi/BRAFi partner; for effect of HDACi on the anti-proliferative effect of vemurafenib: HDACi together with vemurafenib; for effect of HDACi on dabrafenib, trametinib and their combination: FIG. 3
Excerpt: (§3) FIG. 1. BRAF inhibition is antagonized by HDAC inhibition in melanoma. A). […] The cells were fixed and stained at day 14. B). Short-term proliferation assay of melanoma (A375) cells. […] Error bars represent s.d. of biological triplicates. C,D). HDAC inhibitors and vemurafenib have antagonistic effects on MAPK pathway and HDAC inhibitors can rescue cells from vemurafenib-induced apoptosis. A375 were pre-treated with 1 microM vorinostat and 1 microM entinostat for 48 hrs and then treated with the combination of HDAC inhibitor (1 microM) and vemurafenib (1 microM) for additional 24 hrs. The levels of p-RB, p-MEK, MEK, cleaved PARP (cl. PARP) and ac-H3 were detected by western blot. β-actin served as the loading control.
as §1, §2

[3] = test system: MEL888RC-A, B and C cells; experiment: Long-term colony formation assay, vemurafenib-resistant MEL888 clones; assay type: cell-based; details: vorinostat 1 microM, CXD101 0.5 microM
Excerpt: FIG. 5. […] Cells were fixed and stained on day 8.
(§4) These cells are BRAF mutated melanoma.

A375DR cells = experiment: Long-term colony formation assay, dabrafenib/trametinib double-resistant A375DR cells; assay type: cell-based, human
Excerpt: as §4

A375R cells = experiment: Long-term colony formation assay, vemurafenib-resistant A375R cells; details: for sensitivity of cells in proliferation assay, HDACi panel: Vorinostat 1 uM, 01994 4 uM, AR2 0.5 uM, Pracinostat 0.25 uM, Quisinostat 25 nM, 8 day
Experimental: Long-term colony formation assay of melanoma (A375 and A375R clone) cells. […] Cells were fixed and stained at day 12. […] Long-term colony formation assay of melanoma Mel888 parental and vemurafenib-resistant Mel888R cells (three different clones Mel888RC-A, B and C) were seeded at the same cell density in 6-well plates and cultured in presence of vorinostat (1 microM) and/or vemurafenib (2 microM). Cells were fixed and stained at day 10. […] Long-term colony formation assay of melanoma A375 parental and double-resistant cells seeded in 12-well plates and treated with 2 microM vemurafenib and/or 0.5 microM CDX101 (CDX). Medium and drugs were refreshed every 2-3 days. Cells were fixed and stained on day 10.
Medium and drugs were refreshed every 2-3 days. Cells were fixed and stained on day 10
Long-term colony formation assay of A375 parental and MAPKi resistant A375R, A375DR cells treated sulfasalazine and vorinostat. Medium and drugs were refreshed every 2-3 days. Cells were fixed and stained on day 10.
The A375 melanoma cell line was obtained from ATCC. MEL888 were gifts from D. Peeper (Amsterdam, The Netherlands). WM266-4 and Colo741 cell line were provided by R. Marais (Manchester, UK). These cells are BRAF mutated melanoma. All the cell lines were cultured in DMEM medium supplemented with 10% FBS, 1% penicillin/streptomycin and 2 mM I-glutamine. Vemurafenib-resistant A375 and MEL888 cells were generated by long term (at least 3 months) culturing with 2 microM vemurafenib. Dabrafenib-Trametinib combination resistant A375 cells were generated by long term (at least 3 months) culturing with 0.25 microM Dabrafenib and 10 nM Trametinib (MEK inhibitor). Vemurafenib-resistant ex-vivo clones were isolated from immunodeficient BalbC mice, which were long-term treated with PLX4720-chow (50 mg/kg). All the in vitro cell lines have been STR profiled.
Cells were seeded into 6-well plates (5*10^4˜1*10^5 cells per well) or 12-well plates (4*10^4 cells per well) and cultured both in the absence and presence of drugs as indicated.

A375 melanoma cells [4] = experiment: Short-term proliferation assay (IncuCyte), A375 cells; assay type: cell-based, human; details: each drug alone, 1 microM
Excerpt: as §3

A375 cells = experiment: Staining of beta-galactosidase activity; assay type: cell-based, human
Excerpt: β-galactosidase activity in cells was detected using Histochemical Staining Kit (CS0030-1KT) from Sigma-Aldrich. The detection was applied according to the manufacturer's instructions.

[5] = test system: p-MEK in WM2664 melanoma cells; experiment: Western blot of p-MEK, WM2664 cells; assay type: cell-based; details: single drug
Experimental: Cells were seeded in medium containing 10% fetal bovine serum (FBS) for indicated time, and then washed with PBS and lysed with RIPA buffer supplemented with protease inhibitor (cOmplete, Roche) and Phosphatase Inhibitor Cocktails II and III (Sigma). All lysates were freshly prepared and processed with Novex NuPAGE Gel Electrophoresis Systems (Invitrogen).

[6] = test system: 4397A, 4397B, 4393R and 4393L cells; experiment: Long-term colony formation assay, ex vivo PLX4720-resistant A375 clones; assay type: cell-based, human; details: four cell lines with in vivo acquired PLX4720 resistance
Excerpt: FIG. 8. In vitro and ex vivo BRAF inhibitor-resistant clones are hypersensitive to HDACi.
We explanted four PLX4720 resistant tumors from mice immediately after acquisition of PLX4720 resistance in vivo and continued to culture these cells in vitro in the presence of BRAF inhibitor. These cells were designated 4397A, 4397B, 4393R and 4393L.

XCT (SLC7A11) mRNA = experiment: qRT-PCR of SLC7A11 in SK-MEL-147 and SK-MEL-147R cells; details: 72 hours vorinostat treatment
Experimental: The relative mRNA levels were detected by qRT-PCR analysis after 72 hours vorinostat treatment. Error bars represent s.d. of measurement replicates (n=3, *** p<0.001, Student's t-test).
RNA isolation from cell lines harvested with TRIzol reagent (Invitrogen) according to the manufacturer's instruction. cDNA synthesis was performed with Maxima Universal First Strand cDNA Synthesis Kit (# K1661, Thermo scientific) according to manufacturer's instruction.

SK-MEL-147R cells = experiment: Long-term colony formation assay, MEKi-resistant SK-MEL-147R cells; assay type: cell-based, human
Experimental: (a). Long-term colony formation assay of SK-MEL-147 and MEKi-resistant SK-MEL-147R cells cultured in the presence of 1 μM vorinostat and/or 100 nM Trametinib.
(b). Long-term colony formation assay of SK-MEL-147 and SK-MEL-147R cells cultured in the presence of indicated concentrations of vorinostat and/or 5 mM NAC.
(§5) The A375, SK-Mel-147 and SK-Mel-2 melanoma cell lines were obtained from ATCC. […] Trametinib resistant SK-mel-147 and SK-mel-2 were generated by long term culturing with 25 nM (first month), 50 nM (second month) and 100 nM (third month) trametinib.
(§6) For full details, see ref. (Huang et al., 2009).

[7] = test system: A375 melanoma tumor xenografts; experiment: A375 mouse xenografts; assay type: in vivo, BalbC immunodeficient nude mice; details: for tumor volume of PLX4720-resistant tumors after randomization: PLX4720 300 mg/kg in chow and/or vorinostat 100 mg/kg i.p.
Experimental: FIG. 7. HDACi is effective in treatment of BRAF inhibitor resistant melanoma in vivo. A,B). […] A375 melanoma cells were grown as tumor xenografts in BalbC immunodeficient nude mice. After tumor establishment (150-200 mm3), mice were treated with (A). vehicle, PLX4720 (40 mg/kg supplemented in the chow). Upon development of BRAF inhibitor resistance, mice receiving PLX4720 were randomized in four arms (B) receiving: vehicle, PLX4720 (300 mg/kg supplemented in the chow), Vorinostat (100 mg/kg i.p.) or PLX4720 (300 mg/kg supplemented in the chow) plus Vorinostat (100 mg/kg i.p.). C). Resistance to vemurafenib in A375 cells is mediated through reactivation of MAP kinase pathway. Biochemical responses of A375-resistant ex vivo clones and A375 parental cell line treated with 2 microM vemurafenib were documented by western blot analysis. Cells were harvested at 24 hrs after drug treatment. […] HSP90 served as the loading control. […].
A375 melanoma cells (2×10^6 cells per mouse) were injected subcutaneously into the right posterior flanks of 7-week-old immunodeficient BalbC or NMRI nude female mice (6 mice per group; Janvier Laboratories, The Netherlands). Tumor formation was monitored twice a week, and tumor volume based on caliper measurements was calculated by the modified ellipsoidal formula (tumor volume=½(length×width2)). When tumors reached a volume of approximately 0.3 cm^3, mice were randomized into treatment arms. PLX4720 (Plexxikon) was formulated in the chow by Research Diets dosed at 300 mg/kg and vorinostat was formulated in DMSO/saline solution, and it was dosed at 100 mg per kg daily by intraperitoneal injection. When resistance to PLX4720 arises in the group treated with PLX4720, mice bearing tumors of approximately 0.3 cm^3 were again randomized into the treatment arms with the same drug dosages. Animal experiments were approved by the Animal Ethics Committee of the Netherlands Cancer Institute and performed in accordance with institutional, national and European guidelines for Animal Care and Use.
To investigate whether HDACi treatment is a suitable therapy for MPAK pathway inhibitor resistant melanoma, e.g. BRAF inhibitor resistant melanoma, we injected parental vemurafenib sensitive A375 cells into a cohort of 24 BalbC immunodeficient nude mice. After tumors had reached an average volume of 150-200 mm3, we started treatment with vemurafenib by feeding the animals chow supplemented with 40 mg/kg of PLX4720. […] After that period, tumors began to increase in size, indicative of the development of drug resistance (FIG. 7A). When drug resistant tumors in the mice had reached a size of 800 mm3, mice were randomized to four cohorts that were treated either with:
A) no drug; B) PLX4270; C) PLX4270 and vorinostat; D) Vorinostat.

p-MEK in A375 cells = experiment: Western blot of MAPK pathway and apoptosis markers, A375 cells; assay type: cell-based, human; details: single drug
Excerpt: as §3
FIG. 7. HDACi is effective in treatment of BRAF inhibitor resistant melanoma in vivo. A,B). […] A375 melanoma cells were grown as tumor xenografts in BalbC immunodeficient nude mice. After tumor establishment (150-200 mm3), mice were treated with (A). vehicle, PLX4720 (40 mg/kg supplemented in the chow). Upon development of BRAF inhibitor resistance, mice receiving PLX4720 were randomized in four arms (B) receiving: vehicle, PLX4720 (300 mg/kg supplemented in the chow), Vorinostat (100 mg/kg i.p.) or PLX4720 (300 mg/kg supplemented in the chow) plus Vorinostat (100 mg/kg i.p.). C). Resistance to vemurafenib in A375 cells is mediated through reactivation of MAP kinase pathway. […]

SK-MEL-2R cells = experiment: Long-term colony formation assay, MEKi-resistant SK-MEL-2R cells; assay type: cell-based, human; details: 5 mM NAC
Experimental: (i). Long-term colony formation assay of SK-MEL-2 and MEKi-resistant SK-MEL-2R cells cultured in the presence of 1 μM vorinostat and/or 100 nM Trametinib.
(j) Long-term colony formation assay of SK-MEL-2 and SK-MEL-2R cells cultured in the presence of indicated concentrations of vorinostat and/or 5 mM NAC.
as §5, §6

SMILES: Cn1cnc2c(F)c(Nc3ccc(Br)cc3F)c(C(=O)NOCCO)cc21 [MEK162]
- patients with objective responses [1]: 20%
- patients with stable disease [1]: 43%

SMILES: CC(C)(C)c1nc(-c2cccc(NS(=O)(=O)c3c(F)cccc3F)c2F)c(-c2ccnc(N)n2)s1 [dabrafenib]
- proliferation in long-term colony formation assay (Colo741 melanoma cells; MAPK pathway inhibitor(s) without HDACi): effective in limiting proliferation
- proliferation in long-term colony formation assay (A375 melanoma cells [2]): effective in limiting proliferation

SMILES: Cc1nn(C)cc1CN1CCC(c2ccc(C(=O)Nc3ccccc3N)cc2)CC1 [CXD101]
- sensitivity of cells in long-term colony formation assay [3]: hypersensitive
- sensitivity of cells in long-term colony formation assay (A375DR cells; 0.5 microM CDX101): very sensitive
- sensitivity of cells in long-term colony formation assay (A375DR cells; 0.5 microM CDX101, listed as CDX101): hypersensitive
- effect of HDACi on the anti-proliferative effect of vemurafenib (A375 melanoma cells [2]): conferred resistance to vemurafenib
- proliferation in long-term colony formation assay (A375 melanoma cells [2]): mildly anti-proliferative

SMILES: CC(C)[C@H](C(=O)Nc1ccc(C(=O)NO)cc1)c1ccccc1 [AR2]
- sensitivity of cells in proliferation assay, HDACi panel (A375R cells; A375R cells): very sensitive

SMILES: O=C(O)c1cc(/N=N/c2ccc(S(=O)(=O)Nc3ccccn3)cc2)ccc1O [sulfasalazine]
- toxicity in long-term colony formation assay (A375R cells; A375R cells, sulfasalazine 0.2 to 0.4 mM): toxic
- toxicity in long-term colony formation assay (A375DR cells; sulfasalazine 0.2 to 0.4 mM): toxic

SMILES: O=C(CCCCCCC(=O)Nc1ccccc1)NO [vorinostat]
- cell proliferation (cell confluence, IncuCyte) (A375 melanoma cells [4]): restricted cell proliferation
- acidic beta-galactosidase (senescence marker) (A375 cells): induction of acidic beta-galactosidase
- p-MEK levels [5]: increase in phospho-MEK (p-MEK)
- sensitivity of cells to HDACi [6]: very sensitive
- sensitivity of cells in long-term colony formation assay (A375R cells; A375R cells versus parental A375, vorinostat 1 microM, vemurafenib 2 microM): far more sensitive to vorinostat than parental A375 cells; also recorded: massive inhibition of proliferation; also recorded: hypersensitive
- sensitivity of cells in proliferation assay, HDACi panel (A375R cells; A375R cells): very sensitive
- XCT (SLC7A11) mRNA expression (XCT (SLC7A11) mRNA): reduced XCT (also known as SLC7A11) mRNA expression; also recorded: suppressed SLC7A11 expression
- effect of HDACi on dabrafenib, trametinib and their combination (Colo741 melanoma cells): able to confer resistance to these drugs
- effect of HDACi on the anti-proliferative effect of vemurafenib (Colo741 melanoma cells; HDACi together with vemurafenib): conferred resistance to vemurafenib
- sensitivity of cells in long-term colony formation assay (SK-MEL-147R cells; SK-MEL-147R versus parental SK-MEL-147, 1 μM vorinostat, 100 nM Trametinib): acquired significant sensitivity
- tumor volume of PLX4720-resistant tumors after randomization [7]: rapid decline in tumor volume; also recorded: complete disappearance of the tumors after two months; also recorded: suppress melanoma growth
- effect of HDACi on dabrafenib, trametinib and their combination (A375 melanoma cells [2]): able to confer resistance to these drugs
- effect of HDACi on the anti-proliferative effect of vemurafenib (A375 melanoma cells [2]): almost completely negated the anti-proliferative effects of vemurafenib
- proliferation in long-term colony formation assay (A375 melanoma cells [2]): inhibition of proliferation

SMILES: O=C(/C=C/c1cccc(S(=O)(=O)Nc2ccccc2)c1)NO [belinostat]
- sensitivity of cells to HDACi [6]: very sensitive
- effect of HDACi on the anti-proliferative effect of vemurafenib (A375 melanoma cells [2]): conferred resistance to vemurafenib
- proliferation in long-term colony formation assay (A375 melanoma cells [2]): mildly anti-proliferative

SMILES: Nc1ccccc1NC(=O)c1ccc(CNC(=O)OCc2cccnc2)cc1 [entinostat]
- p-MEK levels (p-MEK in A375 cells): increases p-MEK levels
- effect of HDACi on dabrafenib, trametinib and their combination (Colo741 melanoma cells): able to confer resistance to these drugs
- sensitivity of cells in long-term colony formation assay [3]: hypersensitive
- effect of HDACi on dabrafenib, trametinib and their combination (A375 melanoma cells [2]): able to confer resistance to these drugs

SMILES: Cn1cc(CNCC2CCN(c3ncc(C(=O)NO)cn3)CC2)c2ccccc21 [Quisinostat]
- sensitivity of cells in proliferation assay, HDACi panel (A375R cells; A375R cells): very sensitive

SMILES: CC(=O)N[C@@H](CS)C(=O)O [NAC, N-acetyl-L-cysteine]
- effect on the toxic effects of vorinostat (SK-MEL-2R cells): countered, at least in part
- effect on the toxic effect of vorinostat (SK-MEL-147R cells; SK-MEL-147R cells, 5 mM NAC): rescued

SMILES: CCCS(=O)(=O)Nc1ccc(F)c(C(=O)c2c[nH]c3ncc(Cl)cc23)c1F [PLX4720]
- tumor volume of PLX4720-resistant tumors after randomization [7]: continued tumor volume increase
- period of tumor growth suppression before resistance ([7]; chow supplemented with 40 mg/kg of PLX4720): around 3 months
- tumor growth ([7]; chow supplemented with 40 mg/kg of PLX4720, start at 150-200 mm3): significant suppression of tumor growth

SMILES: CCCCc1nc2cc(/C=C/C(=O)NO)ccc2n1CCN(CC)CC [Pracinostat]
- sensitivity of cells in proliferation assay, HDACi panel (A375R cells; A375R cells): very sensitive
